Measured values from patent publication US20090163586A1, “Bis-(Sulfonylamino) Derivatives in Therapy 205” (AstraZeneca AB, priority 2007, published 2009).

Biological target: T1, human mPGES-1 (Homo sapiens, UniProt O14684)
T1 sequence (O14684 1-152): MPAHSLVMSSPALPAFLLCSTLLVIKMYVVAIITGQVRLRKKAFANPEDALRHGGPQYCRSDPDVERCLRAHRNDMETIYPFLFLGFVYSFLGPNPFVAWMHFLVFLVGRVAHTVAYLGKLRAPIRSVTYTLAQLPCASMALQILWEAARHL
Assay: Microsomal prostaglandin E synthase biochemical assay
Settings: microsome preparation containing human mPGES-1; PGH2 10.8 μM, GSH 2.5 mM, pH 6.8; PGE2 by HTRF; average of at least n=2
How it was run: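 Human mPGES-1 microsomes at 2 μg/mL were pre-incubated 15 min with compound (60 μM to 0.002 μM) in 50 mM potassium phosphate pH 6.8 with 2.5 mM GSH. The reaction was started with 10.8 μM PGH2 and stopped after 1 minute with acidic ferric chloride/citrate. PGE2 was quantified by HTRF; IC50 is the mean of at least 2 runs.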

IC50 | SMILES
7300 nM | Cc1ccc(/C=C/S(=O)(=O)Nc2ccccc2S(N)(=O)=O)cc1 [Example 82, 2-[[(E)-2-(4-Methylphenyl)ethenyl]sulfonylamino]benzenesulfonamide]
1300 nM | NS(=O)(=O)c1c(F)cccc1NS(=O)(=O)/C=C/c1ccc2ccccc2c1 [Example 88, 2-Fluoro-6-[[(E)-2-naphthalen-2-ylethenyl]sulfonylamino]benzenesulfonamide]
2800 nM | NS(=O)(=O)c1c(F)cccc1NS(=O)(=O)/C=C/c1ccccc1C(F)(F)F [Example 89, 2-Fluoro-6-[[(E)-2-[2-(trifluoromethyl)phenyl]ethenyl]sulfonylamino]-benzenesulfonamide]
870 nM | NS(=O)(=O)c1c(F)cccc1NS(=O)(=O)/C=C/c1ccc(C(F)(F)F)cc1 [Example 90, 2-Fluoro-6-[[(E)-2-[4-(trifluoromethyl)phenyl]ethenyl]sulfonylamino]-benzenesulfonamide]
310 nM | NS(=O)(=O)c1c(F)cccc1NS(=O)(=O)/C=C/c1ccc(Br)cc1 [Example 91, 2-[[(E)-2-(4-Bromophenyl)ethenyl]sulfonylamino]-6-fluoro-benzenesulfonamide]
650 nM | NS(=O)(=O)c1ccc(F)cc1NS(=O)(=O)/C=C/c1ccc(C(F)(F)F)cc1 [Example 94, 4-Fluoro-2-[[(E)-2-[4-(trifluoromethyl)phenyl]ethenyl]sulfonylamino]-benzenesulfonamide]
310 nM | NS(=O)(=O)c1ccc(F)cc1NS(=O)(=O)/C=C/c1ccc(Br)cc1 [Example 95, 2-[[(E)-2-(4-Bromophenyl)ethenyl]sulfonylamino]-4-fluoro-benzenesulfonamide]
3400 nM | Cc1ccc(NS(=O)(=O)/C=C/c2ccc(C(F)(F)F)cc2)c(S(N)(=O)=O)c1 [Example 97, 5-Methyl-2-[[(E)-2-[4-(trifluoromethyl)phenyl]ethenyl]sulfonylamino]-benzenesulfonamide]
680 nM | Cc1ccc(NS(=O)(=O)/C=C/c2ccc(Br)cc2)c(S(N)(=O)=O)c1 [Example 98, 2-[[(E)-2-(4-Bromophenyl)ethenyl]sulfonylamino]-5-methyl-benzenesulfonamide]
290 nM | NS(=O)(=O)c1cc(F)ccc1NS(=O)(=O)/C=C/c1ccc2ccccc2c1 [Example 99, 5-Fluoro-2-[[(E)-2-naphthalen-2-ylethenyl]sulfonylamino]benzenesulfonamide]
1600 nM | NS(=O)(=O)c1cc(F)ccc1NS(=O)(=O)/C=C/c1ccc(C(F)(F)F)cc1 [Example 101, 5-Fluoro-2-[[(E)-2-[4-(trifluoromethyl)phenyl]ethenyl]sulfonylamino]-benzenesulfonamide]
850 nM | NS(=O)(=O)c1cc(F)ccc1NS(=O)(=O)/C=C/c1ccc(Br)cc1 [Example 102, 2-[[(E)-2-(4-Bromophenyl)ethenyl]sulfonylamino]-5-fluoro-benzenesulfonamide]
9200 nM | NS(=O)(=O)c1ccccc1NS(=O)(=O)/C=C/c1c(F)cccc1F [Example 103, 2-[[(E)-2-(2,6-Difluorophenyl)ethenyl]sulfonylamino]benzenesulfonamide]
670 nM | NS(=O)(=O)c1ccccc1NS(=O)(=O)/C=C/c1ccc(C(F)(F)F)cc1 [Example 105, 2-[[(E)-2-[4-(Trifluoromethyl)phenyl]ethenyl]sulfonylamino]benzenesulfonamide]
74 nM | NS(=O)(=O)c1ccccc1NS(=O)(=O)/C=C/c1ccc(Br)cc1 [Example 106, 2-[[(E)-2-(4-Bromophenyl)ethenyl]sulfonylamino]benzenesulfonamide]

Second part, the molecule before the results:

SMILES | IC50
COc1ccccc1/C=C/S(=O)(=O)Nc1ccccc1S(N)(=O)=O [Example 83, 2-[[(E)-2-(2-Methoxyphenyl)ethenyl]sulfonylamino]benzenesulfonamide] | 430 nM
NS(=O)(=O)c1ccccc1NS(=O)(=O)/C=C/c1ccc2ccccc2c1 [Example 84, 2-[[(E)-2-Naphthalen-2-ylethenyl]sulfonylamino]benzenesulfonamide] | 190 nM
NS(=O)(=O)c1ccc(F)cc1NS(=O)(=O)CCc1ccc(Cl)cc1 [Example 85, 2-[2-(4-Chlorophenyl)ethylsulfonylamino]-4-fluoro-benzenesulfonamide] | 800 nM
C/C(=C\S(=O)(=O)Nc1ccccc1S(N)(=O)=O)c1ccc(Cl)cc1 [Example 86, 2-[[(E)-2-(4-Chlorophenyl)prop-1-enyl]sulfonylamino]benzenesulfonamide] | 700 nM
C=C(CS(=O)(=O)Nc1ccccc1S(N)(=O)=O)c1ccc(Cl)cc1 [Example 87, 2-[2-(4-Chlorophenyl)prop-2-enylsulfonylamino]benzenesulfonamide] | 2400 nM
NS(=O)(=O)c1ccc(F)cc1NS(=O)(=O)/C=C/c1ccc2ccccc2c1 [Example 92, 4-Fluoro-2-[[(E)-2-naphthalen-2-ylethenyl]sulfonylamino]benzenesulfonamide] | 91 nM
NS(=O)(=O)c1ccc(F)cc1NS(=O)(=O)/C=C/c1ccccc1C(F)(F)F [Example 93, 4-Fluoro-2-[[(E)-2-[2-(trifluoromethyl)phenyl]ethenyl]sulfonylamino]-benzenesulfonamide] | 650 nM
Cc1ccc(NS(=O)(=O)/C=C/c2ccc3ccccc3c2)c(S(N)(=O)=O)c1 [Example 96, 5-Methyl-2-[[(E)-2-naphthalen-2-ylethenyl]sulfonylamino]benzenesulfonamide] | 4800 nM
NS(=O)(=O)c1cc(F)ccc1NS(=O)(=O)/C=C/c1ccccc1C(F)(F)F [Example 100, 5-Fluoro-2-[[(E)-2-[2-(trifluoromethyl)phenyl]ethenyl]sulfonylamino]-benzenesulfonamide] | 4000 nM
NS(=O)(=O)c1ccccc1NS(=O)(=O)/C=C/c1ccccc1C(F)(F)F [Example 104, 2-[[(E)-2-[2-(Trifluoromethyl)phenyl]ethenyl]sulfonylamino]benzenesulfonamide] | 4600 nM
NS(=O)(=O)c1ccccc1NS(=O)(=O)CCc1ccc(Br)cc1 [Example 107, 2-[(E)-2-(4-Bromophenyl)ethylsulfonylamino]benzenesulfonamide] | 140 nM
CC(CS(=O)(=O)Nc1ccccc1S(N)(=O)=O)c1ccc(Cl)cc1 (centres unmarked) [Example 108, 2-[2-(4-Chlorophenyl)propylsulfonylamino]benzenesulfonamide] | 4900 nM
COc1ccccc1CCS(=O)(=O)Nc1ccccc1S(N)(=O)=O [Example 109, 2-[2-(2-Methoxyphenyl)ethylsulfonylamino]benzenesulfonamide] | 6100 nM
NS(=O)(=O)c1ccccc1NS(=O)(=O)CCc1ccc2ccccc2c1 [Example 110, 2-(2-Naphthalen-2-ylethylsulfonylamino)benzenesulfonamide] | 490 nM
NS(=O)(=O)c1ccc(F)cc1NS(=O)(=O)CCc1ccc2ccccc2c1 [Example 111, 4-Fluoro-2-(2-naphthalen-2-ylethylsulfonylamino)benzenesulfonamide] | 760 nM
NS(=O)(=O)c1ccccc1NS(=O)(=O)Cc1ccc(Cl)cc1 [Example 112, 2-[(4-Chlorophenyl)methylsulfonylamino]benzenesulfonamide] | 6100 nM
NS(=O)(=O)c1ccccc1NS(=O)(=O)c1cccc(-c2cccc(Cl)c2Cl)c1 [Example 113, 2-[[3-(2,3-Dichlorophenyl)phenyl]sulfonylamino]benzenesulfonamide] | 480 nM
